Source: US9809587B2, “Pesticidally active heterocyclic derivatives with sulphur containing substituents” (Syngenta Participations AG, priority 2014, dated 2017)

Experiments:
Type in all cases: in vivo
[1] = system: Thrips tabaci (Onion Thrips); assay: Thrips tabaci (onion thrips), sprayed sunflower leaf discs; details: foliar, 144 h, application rate of 200 ppm, mixed ages on sunflower leaf discs, 6 days after infestation
Procedure: Example B10: Thrips tabaci (Onion Thrips)
(§1) Sunflower leaf discs were placed on agar in 24-well microtiter plates and sprayed with aqueous test solutions prepared from 10′000 ppm DMSO stock solutions. After drying the leaf discs were infested with a thrips population of mixed ages. The samples were assessed for mortality 6 days after infestation.

[2] = system: Diabrotica balteata (Corn Root Worm); assay: Diabrotica balteata (corn root worm), sprayed maize sprouts; details: 96 h, application rate of 200 ppm, L2 larvae on maize sprouts, 4 days after infestation
Procedure: Example B2: Diabrotica balteata (Corn Root Worm)
Maize sprouts, placed on an agar layer in 24-well microtiter plates were treated with aqueous test solutions prepared from 10′000 ppm DMSO stock solutions by spraying. After drying, the plates were infested with L2 larvae (6 to 10 per well). The samples were assessed for mortality and growth inhibition in comparison to untreated samples 4 days after infestation.

[3] = system: Frankliniella occidentalis (Western Flower Thrips); assay: Frankliniella occidentalis (western flower thrips), sprayed sunflower leaf discs; details: foliar, 168 h, application rate of 200 ppm, mixed ages on sunflower leaf discs, 7 days after infestation
Procedure: Example B11: Frankliniella occidentalis (Western Flower Thrips)
as §1, with “[…]” for “10′000 ppm”, “Frankliniella” for “thrips”, “7” for “6”

[4] = system: Plutella xylostella (Diamond Back Moth); assay: Plutella xylostella (diamond back moth), treated artificial diet; details: 120 h, application rate of 200 ppm, L2 larvae on artificial diet, 5 days after infestation, read-out: effect in at least one of the two categories (mortality or growth inhibition)
Procedure, shortened: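 Artificial diet treated with aqueous dilutions of DMSO stocks (10′000 ppm stock), dried, then infested with 10-15 L2 larvae per well. Mortality and growth inhibition assessed versus untreated controls 5 days after infestation.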

[5] = system: Tetranychus urticae (Two-Spotted Spider Mite); assay: Tetranychus urticae (two-spotted spider mite), sprayed bean leaf discs; details: foliar, 192 h, application rate of 200 ppm, mixed population (mobile stages) on bean leaf discs, 8 days after infestation
Procedure: Example B9: Tetranychus urticae (Two-Spotted Spider Mite)
as §1, with “Bean” for “Sunflower”, “discs” for “discs were placed”, “were” for “and”, “mite” for “thrips”, “on mixed population (mobile stages) 8” for “6”

[6] = system: Myzus persicae (Green Peach Aphid); assay: Myzus persicae (green peach aphid), sprayed sunflower leaf discs; details: foliar, 144 h, application rate of 200 ppm, mixed ages on sunflower leaf discs, 6 days after infestation
Procedure: Example B4: Myzus persicae (Green Peach Aphid)
Sunflower leaf discs were placed on agar in a 24-well microtiter plate and sprayed with aqueous test solutions prepared from 10′000 ppm DMSO stock solutions. After drying, the leaf discs were infested with an aphid population of mixed ages. The samples were assessed for mortality 6 days after infestation.

[7] = system: Spodoptera littoralis (Egyqptian Cotton Leaf Worm); assay: Spodoptera littoralis (Egyptian cotton leaf worm), compound in agar taken up by lettuce roots; details: 144 h, test rate of 12.5 ppm, uptake by lettuce roots from agar, 6 days after infestation, read-out: effect in at least one of the three categories (mortality, anti-feedancy, or growth inhibition)
Procedure, shortened: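 Compound mixed into agar from a 10′000 ppm DMSO stock and taken up over 7 days by lettuce roots; cut leaves then infested with Spodoptera eggs. Mortality, anti-feedant effect and growth inhibition scored against untreated samples 6 days after infestation.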

[8] = system: Bemisia tabaci (Cotton White Fly); assay: Bemisia tabaci (cotton white fly), sprayed cotton leaf discs; details: foliar, 144 h, application rate of 200 ppm, adult white flies on cotton leaf discs, 6 days after incubation
Procedure: Example B1: Bemisia tabaci (Cotton White Fly)
Cotton leaf discs were placed on agar in 24-well microtiter plates and sprayed with aqueous test solutions prepared from 10′000 ppm DMSO stock solutions. After drying the leaf discs were infested with adult white flies. The samples were checked for mortality 6 days after incubation.

[9] = system: Aedes aegypti (Yellow Fever Mosquito); assay: Activity against Aedes aegypti (yellow fever mosquito), dried deposits in tissue culture plates; details: application rate of 200 ppm in ethanol, adult females, after 48 h
Procedure: Example B12: Activity Against Aedes aegypti (Yellow Fever Mosquito)
Test solutions, at an application rate of 200 ppm in ethanol, were applied to 12-well tissue culture plates. Once the deposits were dry, five, two to five days old adult female Aedes aegypti were added to each well, and sustained with a 10% sucrose solution in a cotton wool plug. Assessment of knockdown was made one hour after introduction, and mortality was assessed at 24 and 48 hours after introduction.
The following compounds gave at least 80% control of Aedes aegypti after 48 h: […]

[10] = system: Spodoptera littoralis (Egyqptian Cotton Leaf Worm); assay: Spodoptera littoralis (Egyptian cotton leaf worm), sprayed cotton leaf discs; details: foliar, 72 h, application rate of 200 ppm, L1 larvae on cotton leaf discs, 3 days after infestation
Procedure, shortened: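 Cotton leaf discs on agar were sprayed with aqueous dilutions made from 10′000 ppm DMSO stocks, then infested after drying with five L1 larvae. Mortality, anti-feedant effect and growth inhibition were scored against untreated discs 3 days after infestation. Control means at least one of these exceeds the untreated sample.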

[11] = system: Euschistus heros (Neotropical Brown Stink Bug); assay: Euschistus heros (neotropical brown stink bug), sprayed soybean leaf; details: 120 h, application rate of 200 ppm, N-2 nymphs on soybean leaf, 5 days after infestation
Procedure: Example B3: Euschistus heros (Neotropical Brown Stink Bug)
Soybean leaf on agar in 24-well microtiter plates were sprayed with aqueous test solutions prepared from 10′000 ppm DMSO stock solutions. After drying the leaf were infested with N-2 nymphs. The samples were assessed for mortality in comparison to untreated samples 5 days after infestation.

[12] = system: Myzus persicae (Green Peach Aphid); assay: Myzus persicae (green peach aphid), roots of pea seedlings in test solution; details: 144 h, test rate of 24 ppm, roots of infested pea seedlings in test solution, 6 days
Procedure: Example B5: Myzus persicae (Green Peach Aphid)
Roots of pea seedlings infested with an aphid population of mixed ages were placed directly in the aqueous test solutions prepared from 10′000 DMSO stock solutions. The samples were assessed for mortality 6 days after placing seedlings in test solutions.

CCS(=O)(=O)c1cc(-c2cc(C(F)(F)F)ccn2)cnc1-c1nc2cc(C(F)(F)F)ncc2n1C [Compound P21]
≥ 80%: mortality at 200 ppm [1] | mortality at 200 ppm [2] | mortality at 200 ppm [3] | percent effect (mortality or growth inhibition) at 200 ppm [4] | mortality at 200 ppm [5] | mortality at 200 ppm [6] | percent control (mortality, anti-feedancy or growth inhibition) at 12.5 ppm [7] | mortality at 200 ppm [8] | pest or weed control at 200 ppm [9] | percent control (mortality, anti-feedant effect or growth inhibition) at 200 ppm [10] | mortality at 200 ppm [11]

CCS(=O)(=O)c1cc(-c2ncc(C(F)(F)F)cn2)cnc1-c1nc2cc(C(F)(F)F)ncc2n1C [Compound P25]
≥ 80%: mortality at 200 ppm [1] | mortality at 200 ppm [2] | mortality at 200 ppm [3] | percent effect (mortality or growth inhibition) at 200 ppm [4] | mortality at 200 ppm [5] | mortality at 200 ppm [6] | percent control (mortality, anti-feedancy or growth inhibition) at 12.5 ppm [7] | mortality at 200 ppm [8] | pest or weed control at 200 ppm [9] | percent control (mortality, anti-feedant effect or growth inhibition) at 200 ppm [10] | mortality at 200 ppm [11]

CCS(=O)(=O)c1cc(-c2ncccn2)cnc1-c1nc2cc(C(F)(F)F)ncc2n1C [Compound P27]
≥ 80%: mortality at 200 ppm [2] | mortality at 200 ppm [3] | percent effect (mortality or growth inhibition) at 200 ppm [4] | mortality at 200 ppm [5] | mortality at 200 ppm [6] | mortality at 24 ppm [12] | percent control (mortality, anti-feedancy or growth inhibition) at 12.5 ppm [7] | mortality at 200 ppm [8] | percent control (mortality, anti-feedant effect or growth inhibition) at 200 ppm [10] | mortality at 200 ppm [11]

CCS(=O)(=O)c1cc(-c2ncc(F)cc2F)cnc1-c1nc2cc(C(F)(F)F)ncc2n1C [Compound P35]
≥ 80%: mortality at 200 ppm [2] | mortality at 200 ppm [3] | percent effect (mortality or growth inhibition) at 200 ppm [4] | mortality at 200 ppm [5] | mortality at 200 ppm [6] | mortality at 24 ppm [12] | percent control (mortality, anti-feedancy or growth inhibition) at 12.5 ppm [7] | mortality at 200 ppm [8] | percent control (mortality, anti-feedant effect or growth inhibition) at 200 ppm [10]

CCS(=O)(=O)c1cc(-c2cccc(C#N)n2)cnc1-c1nc2cc(C(F)(F)F)ncc2n1C [Compound P64]
≥ 80%: mortality at 200 ppm [2] | percent effect (mortality or growth inhibition) at 200 ppm [4] | mortality at 200 ppm [5] | mortality at 200 ppm [6] | percent control (mortality, anti-feedancy or growth inhibition) at 12.5 ppm [7] | mortality at 200 ppm [8] | percent control (mortality, anti-feedant effect or growth inhibition) at 200 ppm [10] | mortality at 200 ppm [11]

CCS(=O)(=O)c1cc(-c2ccoc2)cnc1-c1nc2cc(C(F)(F)F)ncc2n1C [Compound P71]
≥ 80%: mortality at 200 ppm [2] | percent effect (mortality or growth inhibition) at 200 ppm [4] | mortality at 200 ppm [5] | mortality at 200 ppm [6] | percent control (mortality, anti-feedancy or growth inhibition) at 12.5 ppm [7] | mortality at 200 ppm [11]

CCS(=O)(=O)c1cc(-n2cc(C#N)cn2)cnc1-c1nc2cc(C(F)(F)F)ncc2n1C [Compound P94]
≥ 80%: mortality at 200 ppm [1] | mortality at 200 ppm [2] | mortality at 200 ppm [3] | percent effect (mortality or growth inhibition) at 200 ppm [4] | mortality at 200 ppm [6] | mortality at 24 ppm [12] | mortality at 200 ppm [8] | pest or weed control at 200 ppm [9] | percent control (mortality, anti-feedant effect or growth inhibition) at 200 ppm [10] | mortality at 200 ppm [11]

CCS(=O)(=O)c1cc(-n2cnc(C(F)(F)F)n2)cnc1-c1nc2cc(C(F)(F)F)ncc2n1C [Compound P110]
≥ 80%: mortality at 200 ppm [1] | mortality at 200 ppm [2] | mortality at 200 ppm [3] | percent effect (mortality or growth inhibition) at 200 ppm [4] | mortality at 200 ppm [5] | mortality at 200 ppm [6] | mortality at 24 ppm [12] | pest or weed control at 200 ppm [9] | percent control (mortality, anti-feedant effect or growth inhibition) at 200 ppm [10] | mortality at 200 ppm [11]

CCS(=O)(=O)c1cc(-c2ncc(C#N)cn2)cnc1-c1nc2cc(C(F)(F)F)ncc2n1C [Compound P111]
≥ 80%: mortality at 200 ppm [1] | mortality at 200 ppm [2] | mortality at 200 ppm [3] | percent effect (mortality or growth inhibition) at 200 ppm [4] | mortality at 200 ppm [6] | mortality at 24 ppm [12] | mortality at 200 ppm [8] | pest or weed control at 200 ppm [9] | percent control (mortality, anti-feedant effect or growth inhibition) at 200 ppm [10] | mortality at 200 ppm [11]
